Experimental data reported in patent publication US12594276B2, “Inhibitors of human immunodeficiency virus replication” (ViiV Healthcare UK (No.5) Limited, priority 2024, dated 2026).

System: recombinant NL4-3 virus (nef section replaced with Renilla luciferase gene) in MT-2 cells
Experiment: HIV cell culture assay (antiviral activity, luciferase readout)
Type: cell-based
Settings: Renilla, NL43, MT-2 cells infected for 4-5 days with recombinant NL4-3 Renilla luciferase virus
Method: HIV cell culture assay—MT-2 cells, 293T cells and the proviral DNA clone of NL4-3 virus were obtained from the NIH AIDS Research and Reference Reagent Program. MT-2 cells were propagated in RPMI 1640 media supplemented with 10% heat inactivated fetal bovine serum (FBS), […]. The 293T cells were propagated in DMEM media supplemented with 10% heat inactivated FBS, […]. A recombinant NL4-3 proviral clone, in which a section of the nef gene was replaced with the Renilla luciferase gene, was used to make the reference virus used in these studies. The recombinant virus was prepared through transfection of the recombinant NL4-3 proviral clone into 293T cells using Transit-293 Transfection Reagent from Mirus Bio LLC (Madison, WI). Supernatant was harvested after 2-3 days and the amount of virus present was titered in MT-2 cells using luciferase enzyme activity as a marker by measuring luciferase enzyme activity. Luciferase was quantitated using the EnduRen Live Cell Substrate from Promega (Madison, WI). Antiviral activities of compounds toward the recombinant virus were quantified by measuring luciferase activity in MT-2 cells infected for 4-5 days with the recombinant virus in the presence of serial dilutions of the compound.
The 50% effective concentration (EC50) was calculated by using the exponential form of the median effect equation where (Fa)=1/[1+(ED50/drug conc.)m](Johnson V A, Byington R T. Infectivity Assay. In Techniques in HIV Research. ed. Aldovini A, Walker B D. 71-76. New York: Stockton Press. 1990). Curve fitting and analysis were performed with ActivityBase XE Runner software version 9.1.0.4 using model 203 (ID Business Solutions, LTD, Guildford, UK).

Row | SMILES | EC50
1 | Cc1cc(C2(F)CCC(F)(F)CC2)nc2nc([C@H](Cc3cc(F)cc(F)c3)NC(=O)Cn3nc(C4CC4)c4c3C[C@@H]3C[C@H]43)n(-c3ccc(Cl)c4c(NS(C)(=O)=O)nn([C@H](C)C(=O)N5C[C@H](F)C[C@H](F)C5)c34)c(=O)c12 (relative stereo) [Example 756, N-[(1S)-1-[(3P)-3-{4-chloro-1-[(2R)-1-[(3R,5S)-3,5-difluoropiperidin-1-yl]-1-oxopropan-2-yl]-3-methanesulfonamido-1H-indazol-7-yl}-5-methyl-4-oxo-7-(1,4,4-trifluorocyclohexyl)-3H,4H-pyrido[2,3-d]pyrimidin-2-yl]-2-(3,5-difluorophenyl)ethyl]-2-[(2R*,4R*)-9-cyclopropyl-7,8-diazatricyclo[4.3.0.0^2,^4]nona-1(6),8-dien-7-yl]acetamide] | 0.037 nM
2 | COCCCn1nc(NS(C)(=O)=O)c2c(Cl)ccc(-n3c([C@H](Cc4cc(F)cc(F)c4)NC(=O)Cn4nc(C(F)F)c5c4C(F)(F)[C@@H]4C[C@H]54)nc4nc(C5(CCN6C[C@H](F)C[C@H](F)C6)CCC(F)(F)CC5)cc(C)c4c3=O)c21 (atropisomer, axis not shown; (P)) [Example 615] | 0.027 nM
3 | Cc1cc(C2(F)CCC(F)(F)CC2)nc2nc([C@H](Cc3cc(F)cc(F)c3)NC(=O)Cn3nc(C(F)F)c4c3C(F)(F)[C@@H]3C[C@H]43)n(-c3ccc(Cl)c4c(NS(C)(=O)=O)nn([C@H](C)C(=O)N5C[C@H](F)C[C@H](F)C5)c34)c(=O)c12 (atropisomer, axis not shown; (P)) [Example 755, N-[(1S)-1-[(3P)-3-{4-chloro-1-[(2R)-1-[(3R,5S)-3,5-difluoropiperidin-1-yl]-1-oxopropan-2-yl]-3-methanesulfonamido-1H-indazol-7-yl}-5-methyl-4-oxo-7-(1,4,4-trifluorocyclohexyl)-3H,4H-pyrido[2,3-d]pyrimidin-2-yl]-2-(3,5-difluorophenyl)ethyl]-2-[(2S,4R)-9-(difluoromethyl)-5,5-difluoro-7,8-diazatricyclo[4.3.0.0^2,^4]nona-1(6),8-dien-7-yl]acetamide] | 0.027 nM
4 | Cc1cc(C2CCC(F)(F)CC2)nc2nc([C@H](Cc3cc(F)cc(F)c3)NC(=O)Cn3nc(C4CC4)c4c3C[C@@H]3C[C@H]43)n(-c3ccc(Cl)c4c(NS(C)(=O)=O)nn(C[C@@H](C)N5CC(C)(C)OC(C)(C)C5)c34)c(=O)c12 (relative stereo) [Example 706, N-[(1S)-1-[(3P)-3-{4-chloro-3-methanesulfonamido-1-[(2R)-2-(2,2,6,6-tetramethylmorpholin-4-yl)propyl]-1H-indazol-7-yl}-7-(4,4-difluorocyclohexyl)-5-methyl-4-oxo-3H,4H-pyrido[2,3-d]pyrimidin-2-yl]-2-(3,5-difluorophenyl)ethyl]-2-[(2R*,4R*)-9-cyclopropyl-7,8-diazatricyclo[4.3.0.0^2,^4]nona-1(6),8-dien-7-yl]acetamide] | 0.015 nM
5 | Cc1cc(C2CCC(F)(F)CC2)nc2nc([C@H](Cc3cc(F)cc(F)c3)NC(=O)Cn3nc(C(F)F)c4c3C(F)(F)[C@@H]3C[C@H]43)n(-c3ccc(Cl)c4c(NS(C)(=O)=O)nn(C[C@@H](C)N5CC(C)(C)OC(C)(C)C5)c34)c(=O)c12 (atropisomer, axis not shown; (P)) [Example 705, N-[(1S)-1-[(3P)-3-{4-chloro-3-methanesulfonamido-1-[(2R)-2-(2,2,6,6-tetramethylmorpholin-4-yl)propyl]-1H-indazol-7-yl}-7-(4,4-difluorocyclohexyl)-5-methyl-4-oxo-3H,4H-pyrido[2,3-d]pyrimidin-2-yl]-2-(3,5-difluorophenyl)ethyl]-2-[(2S,4R)-9-(difluoromethyl)-5,5-difluoro-7,8-diazatricyclo[4.3.0.0^2,^4]nona-1(6),8-dien-7-yl]acetamide] | 0.021 nM
6 | Cc1cc(C2CCC(F)(F)CC2)nc2nc([C@H](Cc3cc(F)cc(F)c3)NC(=O)Cn3nc(C(F)(F)F)c4c3C[C@@H]3C[C@H]43)n(-c3ccc(Cl)c4c(NS(C)(=O)=O)nn(CCN5CC(C)(C)OC(C)(C)C5)c34)c(=O)c12 (atropisomer, axis not shown; (P)) [Example 612, N-[(1S)-1-[(3P)-3-{4-chloro-3-methanesulfonamido-1-[2-(2,2,6,6-tetramethylmorpholin-4-yl)ethyl]-1H-indazol-7-yl}-7-(4,4-difluorocyclohexyl)-5-methyl-4-oxo-3H,4H-pyrido[2,3-d]pyrimidin-2-yl]-2-(3,5-difluorophenyl)ethyl]-2-[(2S,4S)-9-(trifluoromethyl)-7,8-diazatricyclo[4.3.0.0^2,^4]nona-1(6),8-dien-7-yl]acetamide] | 0.028 nM
7 | Cc1cc(C2CCC(F)(F)CC2)nc2nc([C@H](Cc3cc(F)cc(F)c3)NC(=O)Cn3nc(C4CC4)c4c3C(F)(F)[C@@H]3C[C@H]43)n(-c3ccc(Cl)c4c(NS(C)(=O)=O)nn(CCN5CC(C)(C)OC(C)(C)C5)c34)c(=O)c12 (atropisomer, axis not shown; (P)) [Example 610, N-[(1S)-1-[(3P)-3-{4-chloro-3-methanesulfonamido-1-[2-(2,2,6,6-tetramethylmorpholin-4-yl)ethyl]-1H-indazol-7-yl}-7-(4,4-difluorocyclohexyl)-5-methyl-4-oxo-3H,4H-pyrido[2,3-d]pyrimidin-2-yl]-2-(3,5-difluorophenyl)ethyl]-2-[(2S,4R)-9-cyclopropyl-5,5-difluoro-7,8-diazatricyclo[4.3.0.0^2,^4]nona-1(6),8-dien-7-yl]acetamide] | 0.017 nM
8 | Cc1cc(C2CCC(F)(F)CC2)nc2nc([C@H](Cc3cc(F)cc(F)c3)NC(=O)Cn3nc([C@H]4CC4(F)F)c4c3C[C@H]3C[C@@H]43)n(-c3ccc(Cl)c4c(NS(C)(=O)=O)nn(CCN5CC(C)(C)OC(C)(C)C5)c34)c(=O)c12 (atropisomer, axis not shown; (P)) [Example 613, N-[(1S)-1-[(3P)-3-{4-chloro-3-methanesulfonamido-1-[2-(2,2,6,6-tetramethylmorpholin-4-yl)ethyl]-1H-indazol-7-yl}-7-(4,4-difluorocyclohexyl)-5-methyl-4-oxo-3H,4H-pyrido[2,3-d]pyrimidin-2-yl]-2-(3,5-difluorophenyl)ethyl]-2-[(2R,4R)-9-[(1R)-2,2-difluorocyclopropyl]-7,8-diazatricyclo[4.3.0.0^2,^4]nona-1(6),8-dien-7-yl]acetamide] | 0.015 nM
9 | CC1(C)CN(CCn2nc(NS(C)(=O)=O)c3c(Cl)ccc(-n4c([C@H](Cc5cc(F)cc(F)c5)NC(=O)Cn5nc(C(F)F)c6c5C(F)(F)[C@@H]5C[C@H]65)nc5nc(C6CCC(F)(F)CC6)cc(CN6CC(F)(F)C6)c5c4=O)c32)CC(C)(C)O1 (atropisomer, axis not shown; (P)) [Example 621, N-[(1S)-1-[(3P)-3-{4-chloro-3-methanesulfonamido-1-[2-(2,2,6,6-tetramethylmorpholin-4-yl)ethyl]-1H-indazol-7-yl}-5-[(3,3-difluoroazetidin-1-yl)methyl]-7-(4,4-difluorocyclohexyl)-4-oxo-3H,4H-pyrido[2,3-d]pyrimidin-2-yl]-2-(3,5-difluorophenyl)ethyl]-2-[(2S,4R)-9-(difluoromethyl)-5,5-difluoro-7,8-diazatricyclo[4.3.0.0^2,4]nona-1(6),8-dien-7-yl]acetamide] | 0.005 nM
10 | Cc1cc(C2CCC(F)(F)CC2)nc2nc([C@H](Cc3cc(F)cc(F)c3)NC(=O)Cn3nc(C4CC4)c4c3C[C@H]3C[C@@H]43)n(-c3ccc(Cl)c4c(NS(C)(=O)=O)nn(CCN5CC(C)(C)OC(C)(C)C5)c34)c(=O)c12 (atropisomer, axis not shown; (P)) [Example 606, N-[(1S)-1-[(3P)-3-{4-chloro-3-methanesulfonamido-1-[2-(2,2,6,6-tetramethylmorpholin-4-yl)ethyl]-1H-indazol-7-yl}-7-(4,4-difluorocyclohexyl)-5-methyl-4-oxo-3H,4H-pyrido[2,3-d]pyrimidin-2-yl]-2-(3,5-difluorophenyl)ethyl]-2-[(2R,4R)-9-cyclopropyl-7,8-diazatricyclo[4.3.0.0^2,^4]nona-1(6),8-dien-7-yl]acetamide] | 0.026 nM
11 | Cc1cc(C2(F)CCC(F)(F)CC2)nc2nc([C@H](Cc3cc(F)cc(F)c3)NC(=O)Cn3nc(C(F)F)c4c3C(F)(F)[C@@H]3C[C@H]43)n(-c3ccc(Cl)c4c(NS(C)(=O)=O)nn(C[C@@H](C)N5CC(C)(C)OC(C)(C)C5)c34)c(=O)c12 (atropisomer, axis not shown; (P)) [Example 707, N-[(1S)-1-[(3P)-3-{4-chloro-3-methanesulfonamido-1-[(2R)-2-(2,2,6,6-tetramethylmorpholin-4-yl)propyl]-1H-indazol-7-yl}-5-methyl-4-oxo-7-(1,4,4-trifluorocyclohexyl)-3H,4H-pyrido[2,3-d]pyrimidin-2-yl]-2-(3,5-difluorophenyl)ethyl]-2-[(2S,4R)-9-(difluoromethyl)-5,5-difluoro-7,8-diazatricyclo[4.3.0.0^2,^4]nona-1(6),8-dien-7-yl]acetamide] | 0.038 nM
